Measurements from the C3SDB collision cross section collection.
Several values for one entry are separate records, joined by “and”; a condition that tells them apart may be missing. Identical values can stand only once.

Details: instrument: DT, stepped-field

Compound | collision cross section (N2) ([M+K]+) | collision cross section (N2) ([M+Na]+) | other results
CCC(C)[C@H](NC(=O)[C@H](CC(N)=O)NC(=O)[C@H](CCC(=O)O)NC(=O)[C@H](C)NC(=O)[C@H](CC(C)C)NC(=O)[C@@H](N)CC(N)=O)C(=O)N[C@@H](CO)C(=O)N[C@@H](CCCNC(=N)N)C(=O)O (some centres not stated) [NLAENISR] | – | – | collision cross section (N2) ([M+H]+): 291.7 Å²
CCCCC/C=C\C/C=C\C/C=C\CCCCC(=O)O[C@H](COC(=O)CCCCCCCCCCCCC)COP(=O)([O-])OCC[N+](C)(C)C [PC(32:3)] | 288.9 Å² | – | –
CCCCC/C=C\C/C=C\C/C=C\CCCCC(=O)O[C@H](COC(=O)CCCCCCC/C=C\CCCCC)COP(=O)([O-])OCC[N+](C)(C)C [PC(33:4)] | 287.5 Å² | – | –
CC\C=C/C=C/C=C/C=C\CCCCCCCC(=O)O[C@H](COC(=O)CCCCCCCCCCCCCCC)COP(=O)([O-])OCC[N+](C)(C)C [PC(34:4)] | 289 Å² | – | –
CC/C=C\C/C=C\C/C=C\C/C=C\CCCCC(=O)OC[C@H](COP(=O)([O-])OCC[N+](C)(C)C)OC(=O)CCCCCCCCCCCCCCCC [PC(35:4)] | 294.5 Å² | – | –
CCCC/C=C\C/C=C\CCCCCCCC(=O)OC[C@H](COP(=O)([O-])OCC[N+](C)(C)C)OC(=O)CCCC/C=C\C/C=C\C/C=C\CCCCC [PC(35:5)] | 293.8 Å² | – | –
CCCCC/C=C\C/C=C\C/C=C\C/C=C\CCCCCC(=O)O[C@H](COC(=O)CCCCCCC/C=C\CCCCC)COP(=O)([O-])OCC[N+](C)(C)C [PC(37:5)] | 299 Å² | – | –
CC/C=C\C/C=C\C/C=C\C/C=C\C/C=C\C/C=C\CCC(=O)O[C@H](COC(=O)CCCCCCC/C=C\CCCCC)COP(=O)([O-])OCC[N+](C)(C)C [PC(37:7)] | 296.6 Å² | – | –
CC/C=C\C/C=C\C/C=C\C/C=C\C/C=C\CCCC(=O)O[C@H](COC(=O)CCCC/C=C\C/C=C\C/C=C\CCCCC)COP(=O)([O-])OCC[N+](C)(C)C [PC(38:8)] | – | 299.9 Å² | –
CCCC=CCC=CCC=CCC=CCC=CCC(=O)OC[C@H](COP(=O)(O)OCC[N+](C)(C)C)OC(=O)CC=CCC=CCC=CCC=CCC=CCCC [PC(38:10)] | – | 295.9 Å² | –
CC/C=C\C/C=C\C/C=C\C/C=C\C/C=C\CCCCCC(=O)O[C@H](COC(=O)CCCCCCCCCCCCCCCC)COP(=O)([O-])OCC[N+](C)(C)C [PC(39:5)] | 304.7 Å² | – | –
CC/C=C\C/C=C\C/C=C\C/C=C\C/C=C\CCCC(=O)OC[C@H](COP(=O)([O-])OCC[N+](C)(C)C)OC(=O)CCC/C=C\C/C=C\C/C=C\C/C=C\C/C=C\CC [PC(40:10)] | – | 301.5 Å² | –
CCCCCCC=CCC=CCC(=O)OC[C@H](COP(=O)(O)OCCN)OC(=O)CC=CCC=CCCCCCC [PE(26:4)] | 245.4 Å² | – | –
CCCC=CCC=CCC=CCC(=O)OC[C@H](COP(=O)(O)OCCN)OC(=O)CC=CCC=CCC=CCCC [PE(26:6)] | 241.7 Å² | – | –
CCCCCCCCCCCCCCCCC(=O)O[C@H](COC(=O)CCCCCCCCCCCCCCC)COP(=O)(O)OCCN [PE(33:0)] | 277.2 Å² | – | –
CCCCCCCCCCCCCCCCCCC(=O)O[C@H](COC(=O)CCCCCCCCCCCCCCC)COP(=O)(O)OCCN [PE(35:0)] | 286.2 Å² | – | –
CCCC/C=C\CCCCCCCC(=O)OC[C@H](COP(=O)(O)OCCN)OC(=O)CCCCC/C=C\C/C=C\C/C=C\C/C=C\CCCCC [PE(36:5)] | – | 278.2 Å² | –
CC/C=C\C/C=C\C/C=C\C/C=C\CCCCC(=O)O[C@H](COC(=O)CCCCCCC/C=C\C/C=C\CCCCC)COP(=O)(O)OCCN [PE(36:6)] | – | 276.3 Å² | –
CC/C=C\C/C=C\C/C=C\C/C=C\CCCCC(=O)O[C@H](COC(=O)CCC/C=C\C/C=C\C/C=C\C/C=C\CCCCC)COP(=O)(O)OCCN [PE(38:8)] | – | 281.9 Å² | –
CCCCC/C=C\C/C=C\CCCCCCCCCC(=O)OC[C@H](COP(=O)(O)OCCN)OC(=O)CCCCCCCCCCCCCCCCCC [PE(39:2)] | 295.9 Å² | – | –
CCCCC/C=C\C/C=C\CCCCCCCCCC(=O)O[C@H](COC(=O)CCCCCCC/C=C\CCCCCCCCC)COP(=O)(O)OCCN [PE(39:3)] | 293.4 Å² | – | –
CCCCC/C=C\C/C=C\C/C=C\C/C=C\CCCCCC(=O)O[C@H](COC(=O)CCCCCCCCCCCCCCCC)COP(=O)(O)OCCN [PE(39:4)] | – | 292.8 Å² | –
CC/C=C\C/C=C\C/C=C\C/C=C\C/C=C\CCCC(=O)O[C@H](COC(=O)CCCCCCCCC/C=C\C/C=C\CCCCC)COP(=O)(O)OCCN [PE(40:7)] | – | 290.8 Å² | –

Compound | collision cross section (N2) ([M+K]+) | collision cross section (N2) ([M+Na]+) | other results
CC/C=C\C/C=C\C/C=C\C/C=C\CCCCC(=O)O[C@H](COCCCCCCCCCCCCCCCC)COP(=O)(O)OCCN [PE(o34:4)] | – | 275.9 Å² | –
CCCCC/C=C\C/C=C\C/C=C\C/C=C\CCCC(=O)O[C@H](COC(=O)CCCCCCCCCCCCCCC)COP(=O)(O)OC[C@H](N)C(=O)O [PS(36:4)] | – | 287.8 Å² | –
CCCCCCC/C=C\CCCCCCCC(=O)O[C@H](COC(=O)CCCCCCCCC/C=C\CCCCCCCC)COP(=O)(O)OC[C@H](N)C(=O)O [PS(37:2)] | 293 Å² | – | –
CC/C=C\C/C=C\C/C=C\C/C=C\C/C=C\C/C=C\CCC(=O)OC[C@H](COP(=O)(O)OC[C@H](N)C(=O)O)OC(=O)CCCCCCC/C=C\CCCCCCC [PS(39:7)] | – | 293.1 Å² | –
CC/C=C\C/C=C\C/C=C\C/C=C\C/C=C\C/C=C\CCC(=O)OC[C@H](COP(=O)(O)OC[C@H](N)C(=O)O)OC(=O)CCCCCCC/C=C\CCCCCCCCC [PS(41:7)] | – | 299.2 Å² | –
CC/C=C\C/C=C\C/C=C\C/C=C\C/C=C\CCCC(=O)OC[C@H](COP(=O)(O)OC[C@H](N)C(=O)O)OC(=O)CCCCCCCCCCC/C=C\C/C=C\CCCCC [PS(42:7)] | – | 304.7 Å² | –
CCC=CCC=CCC=CCC=CCC=CCC=CCC(=O)OC[C@H](COP(=O)(O)OC[C@H](N)C(=O)O)OC(=O)CC=CCC=CCC=CCC=CCC=CCC=CCC [PS(42:12)] | – | 293.7 Å² | –
CCCCC/C=C\C/C=C\C/C=C\C/C=C\CCCCCC(=O)O[C@H](COC(=O)CCCCCCCCC/C=C\CCCCCCCCCC)COP(=O)(O)OC[C@H](N)C(=O)O [PS(44:5)] | – | 311.5 Å² | –
CC/C=C\C/C=C\C/C=C\C/C=C\C/C=C\C/C=C\CCC(=O)OC[C@H](COP(=O)(O)OC[C@H](N)C(=O)O)OC(=O)CCCCCCCCC/C=C\CCCCCCCCCC [PS(44:7)] | – | 311.8 Å² | –
CCCCC/C=C\C/C=C\C/C=C\C/C=C\CCCCCC(=O)OC[C@H](COP(=O)(O)OC[C@H](N)C(=O)O)OC(=O)CCCCC/C=C\C/C=C\C/C=C\C/C=C\CCCCC [PS(44:8)] | – | 306.8 Å² | –
CC/C=C\C/C=C\C/C=C\C/C=C\C/C=C\C/C=C\CCC(=O)OC[C@H](COP(=O)(O)OC[C@H](N)C(=O)O)OC(=O)CC/C=C\C/C=C\C/C=C\C/C=C\C/C=C\C/C=C\CC [PS(44:12)] | – | 299.7 Å² | –
CCCCCCCCCCC=CCC=CCC=CCC=CCC(=O)OC[C@H](COP(=O)(O)OC[C@H](N)C(=O)O)OC(=O)CC=CCC=CCC=CCC=CCCCCCCCCCC [PS(46:8)] | – | 313.2 Å² | –
OC[C@H]1OC(OC[C@H]2OC(O[C@]3(CO)O[C@H](CO)[C@@H](O)[C@@H]3O)[C@H](O)[C@@H](O)[C@@H]2O)[C@H](O)[C@@H](O)[C@H]1O (some centres not stated) [Raffinose] | 212.7 Å² | 210.7 Å² | collision cross section (N2) ([M+Rb]+): 218.7 Å² and 229.7 Å²
CCCCCCCCCCCCC=CC[C@@H](O)[C@H](COP(=O)([O-])OCC[N+](C)(C)C)NC(=O)CCCCCCCCCCCCCCCCCCCCCCCCC [SM(44:1)] | – | 315.1 Å² | –
CCCCCCCCCCCCC=CC[C@@H](O)[C@H](COP(=O)([O-])OCC[N+](C)(C)C)NC(=O)CC=CCC=CCCCCCCCCCCCCCCCCCCC [SM(44:3)] | – | 312 Å² | –
CCCCCC[N+](CCCCCC)(CCCCCC)CCCCCC [TAA6] | – | – | collision cross section (N2) ([M]+): 213.5 Å²
CCCCCCCC[N+](CCCCCCCC)(CCCCCCCC)CCCCCCCC [TAA8] | – | – | collision cross section (N2) ([M]+): 256.6 Å²
CCCCCCCCCC[N+](CCCCCCCCCC)(CCCCCCCCCC)CCCCCCCCCC [TAA10] | – | – | collision cross section (N2) ([M]+): 293.5 Å²
CCCCCCCCCCCCCCCC[N+](CCCCCCCCCCCCCCCC)(CCCCCCCCCCCCCCCC)CCCCCCCCCCCCCCCC [TAA16] | – | – | collision cross section (N2) ([M]+): 361.5 Å²
CC(C)[C@H](N)C(=O)N[C@@H](Cc1ccccc1)C(=O)N[C@@H](C)C(=O)N[C@@H](CC(=O)O)C(=O)N[C@@H](Cc1ccc(O)cc1)C(=O)N[C@@H](CCC(=O)O)C(=O)N[C@@H](CCC(=O)O)C(=O)N[C@@H](Cc1ccc(O)cc1)C(=O)N[C@H](C(=O)N[C@@H](CCCCN)C(=O)O)C(C)C [VFADYEEYVK] | – | – | collision cross section (N2) ([M+H]+): 366.4 Å²
CCC(C)[C@H](NC(=O)[C@@H](N)C(C)C)C(=O)N[C@@H](Cc1ccccc1)C(=O)N[C@@H](CC(C)C)C(=O)N[C@@H](CCC(=O)O)C(=O)N[C@@H](CC(N)=O)C(=O)N[C@@H](Cc1ccc(O)cc1)C(=O)N[C@@H](CCCNC(=N)N)C(=O)O (some centres not stated) [VIFLENYR] | – | – | collision cross section (N2) ([M+H]+): 318.3 Å²
CC(C)C[C@H](NC(=O)[C@H](C)NC(=O)[C@H](CO)NC(=O)[C@@H](N)C(C)C)C(=O)N[C@@H](Cc1ccc(O)cc1)C(=O)N[C@@H](CCCCN)C(=O)O [VSALYK] | – | – | collision cross section (N2) ([M+H]+): 261.8 Å² and 254 Å²
